From ChEMBL document CHEMBL1135211, “Non-covalent thrombin inhibitors featuring P3-heterocycles with P1-bicyclic arginine surrogates” (Bioorg Med Chem Lett, 2002)

Key:
[1] = target: Prothrombin (Homo sapiens, UniProt P00734); assay: In vitro inhibitory activity against human Thrombin (FIIa) cleavage of the chromogenic substrate
[2] = in vivo; details: dog, po, 1 mg/kg
[3] = Cmax in dog plasma after oral dose (1 mg/kg); assay type: ADME, organism-based, Canis lupus familiaris; set-up: dose 1 mg/kg, route oral
[4] = in vivo; details: dog, po, 1 mg/kg; remark: listed apart in the source
[5] = Ionisation constant (pKa); assay type: physicochemical

Work on Cc1cnc(NCCc2ccccc2)c(=O)n1CC(=O)NCc1ccc2[nH]nnc2c1 yielded a Ki [1] of 224 nM.

Cc1cnc(NCCc2ccccc2)c(=O)n1CC(=O)NCc1ccc2cn[nH]c2c1 gave a half-life [2] of 0.417 h, a Cmax [3] of 960 ng/mL and an AUC ([4]; plasma) of 2200 ng·h/mL.

Work on Cc1cc2cn[nH]c2cc1CNC(=O)Cn1c(C)ccc(NS(=O)(=O)Cc2ccccc2)c1=O yielded a Ki [1] of 271 nM and a pKa [5] of 4.

For Cc1ccc(NS(=O)(=O)c2ccc3c(c2)CCO3)c(=O)n1CC(=O)NCc1ccc2c[nH]nc2c1, the Ki [1] was 1320 nM.

Cc1cnc(NCCc2ccc3c(c2)CCC3)c(=O)n1CC(=O)NCc1ccc2c(ccn2N)c1 showed a Ki [1] of 12400 nM and a pKa [5] of 7.4.

Cc1nc(N)ccc1CNC(=O)Cn1c(C)cnc(NCCc2ccccc2)c1=O [L-375378] showed a half-life [2] of 3.32 h, a Ki [1] of 1 nM and a Cmax [3] of 900 ng/mL. It also gave an AUC ([4]; in vivo) of 4580 ng·h/mL.

With Cc1cnc(NCC2(c3ccc(F)cc3)CC2)c(=O)n1CC(=O)NCc1ccc2[nH]nc(N)c2c1 the half-life [2] was 2.07 h, the Ki [1] was 15.4 nM and the Cmax [3] was 880 ng/mL. The AUC ([4]; plasma) was 2950 ng·h/mL and the pKa [5] was 3.6.

Work on CCc1cnc(NCCc2ccccc2)c(=O)n1CC(=O)NCc1ccc2[nH]ccc2c1 yielded a half-life [2] of 1.4 h, a Ki [1] of 23.7 nM and a Cmax [3] of 310 ng/mL. It also gave an AUC ([4]; plasma) of 523 ng·h/mL.

Work on COc1cccc(S(=O)(=O)Nc2cccn(CC(=O)NCc3ccc4[nH]nc(N)c4c3)c2=O)c1 yielded a half-life [2] of 4.57 h, a Ki [1] of 325 nM and a Cmax [3] of 930 ng/mL. It also gave an AUC ([4]; plasma) of 3950 ng·h/mL and a pKa [5] of 3.6.

With COc1cccc(CCNc2ncc(C)n(CC(=O)NCc3ccc4[nH]ncc4c3)c2=O)c1 the Ki [1] was 10.4 nM.

Cc1cnc(NCCc2ccccc2)c(=O)n1CC(=O)NCc1ccc2[nH]ncc2c1 showed a Ki [1] of 18.4 nM.

Cc1cnc(NC[C@H](C)c2ccccc2)c(=O)n1CC(=O)NCc1ccc2[nH]ncc2c1 showed a Ki [1] of 5.7 nM.

Cc1cnc(NCCc2ccccn2)c(=O)n1CC(=O)NCc1ccc2[nH]ncc2c1 gave a Ki [1] of 3.1 nM.

With Cc1nc2cc(CNC(=O)Cn3c(C)cnc(NCCc4ccccc4)c3=O)ccc2[nH]1 the Ki [1] was over 3970 nM and the pKa [5] was 6.4.

In the case of Cc1cnc(NCCc2ccc3c(c2)CCC3)c(=O)n1CC(=O)NCc1ccc2[nH]ccc2c1, the Ki [1] is reported as 29.8 nM.

For Cc1cnc(NCCc2ccc(F)cc2)c(=O)n1CC(=O)NCc1ccc2c(N)noc2c1, the half-life [2] was 4.35 h, the Ki [1] was 17.6 nM and the Cmax [3] was 640 ng/mL. The AUC ([4]; plasma) was 4680 ng·h/mL and the pKa [5] was 8.6.

In the case of Cc1n[nH]c2ccc(CNC(=O)Cn3c(C)cnc(NCCc4ccccc4)c3=O)cc12, the Ki [1] is reported as 444 nM.

Work on COc1ccc(CCNc2ncc(C)n(CC(=O)NCc3ccc4[nH]cnc4c3)c2=O)cc1 yielded a half-life [2] of 1.52 h, a Ki [1] of 5 nM and a Cmax [3] of 190 ng/mL. It also gave an AUC ([4]; plasma) of 458 ng·h/mL and a pKa [5] of 5.8.

For Cc1cnc(NCCc2ccccc2)c(=O)n1CC(=O)NCc1ccc2nc(N)sc2c1, the Ki [1] was over 3970 nM and the pKa [5] was 7.5.

For Cc1cnc(NCCc2ccccc2)c(=O)n1CC(=O)NCc1ccc2[nH]cnc2c1, the half-life [2] was 1.77 h, the Cmax [3] was 390 ng/mL and the AUC ([4]; plasma) was 1630 ng·h/mL. It also gave a pKa [5] of 5.8.

Cc1ccc(NS(=O)(=O)Cc2ccc(Br)cc2)c(=O)n1CC(=O)NCc1ccc2c(N)noc2c1 gave a half-life [2] of 1.82 h, a Ki [1] of 22.2 nM and a Cmax [3] of 1520 ng/mL. It also gave an AUC ([4]; plasma) of 5470 ng·h/mL and a pKa [5] of 8.6.

In the case of Cc1cnc(NCC(F)(F)c2ccccc2)c(=O)n1CC(=O)NCc1ccc2[nH]nc(N)c2c1, the half-life [2] is reported as 3.63 h, the Ki [1] is reported as 4.1 nM and the Cmax [3] is reported as 960 ng/mL. For the same compound, the AUC ([4]; plasma) was 5930 ng·h/mL and the pKa [5] was 3.6.

With Cc1cnc(NCCc2ccccc2)c(=O)n1CC(=O)NCc1ccc2[nH]nc(O)c2c1 the Ki [1] was 33 nM, the Cmax [3] was 30 ng/mL and the AUC ([4]; plasma) was 18.3 ng·h/mL. For the same compound, the pKa [5] was 6.3.

Work on Cc1ccc(NS(=O)(=O)c2ccc3c(c2)CCO3)c(=O)n1CC(=O)NCc1ccc2[nH]nc(N)c2c1 yielded a half-life [2] of 1.2 h, a Ki [1] of 28.7 nM and a Cmax [3] of 230 ng/mL. It also gave an AUC ([4]; plasma) of 298 ng·h/mL and a pKa [5] of 3.6.

Cc1ccc(NS(=O)(=O)Cc2ccccc2)c(=O)n1CC(=O)NCc1ccc2c(N)noc2n1 gave a half-life [2] of 0.6 h, a Ki [1] of 203 nM and a Cmax [3] of 280 ng/mL. The AUC ([4]; plasma) was 237 ng·h/mL and the pKa [5] was 4.7.

With Cc1cnc(NCCc2ccccc2)c(=O)n1CC(=O)NCc1ccc2c(N)noc2c1 the half-life [2] was 2.52 h, the Ki [1] was 82.2 nM and the Cmax [3] was 1030 ng/mL. For the same compound, the AUC ([4]; plasma) was 3950 ng·h/mL and the pKa [5] was 8.6.

In the case of Cc1ccc(NS(=O)(=O)Cc2ccccc2)c(=O)n1CC(=O)NCc1ccc2c(N)[nH]nc2n1, the Ki [1] is reported as 1590 nM and the pKa [5] is reported as 6.7.

Cc1ccc(NS(=O)(=O)Cc2ccccc2)c(=O)n1CC(=O)NCc1ccc2onc(N)c2c1 showed a half-life [2] of 2.2 h, a Cmax [3] of 240 ng/mL and an AUC ([4]; plasma) of 630 ng·h/mL. For the same compound, the pKa [5] was 8.2.

Compound Cc1ccc(NS(=O)(=O)Cc2ccc(Cl)cc2)c(=O)n1CC(=O)NCc1ccc2[nH]cnc2c1 has a half-life [2] of 1.15 h, a Ki [1] of 6.5 nM and a Cmax [3] of 170 ng/mL. It also gave an AUC ([4]; plasma) of 202 ng·h/mL and a pKa [5] of 5.8.

With Cc1cnc(NCCc2ccccc2)c(=O)n1CC(=O)NCc1ccc2[nH]nc(N)c2c1 the half-life [2] was 2.77 h, the Cmax [3] was 1030 ng/mL and the AUC ([4]; plasma) was 4850 ng·h/mL. The pKa [5] was 3.6.

For Cc1cnc(NCC2(c3ccccc3)CCC2)c(=O)n1CC(=O)NCc1ccc2[nH]nc(O)c2c1, the Ki [1] was 10 nM and the pKa [5] was 6.3.

For Cc1ccc(NS(=O)(=O)Cc2ccccc2)c(=O)n1CC(=O)NCc1ccc2c(N)[nH]nc2c1, the half-life [2] was 1.4 h, the Ki [1] was 224 nM and the Cmax [3] was 580 ng/mL. It also gave an AUC ([4]; plasma) of 1310 ng·h/mL and a pKa [5] of 3.8.

Cc1cnc(NC[C@@H](C)c2ccccc2)c(=O)n1CC(=O)NCc1ccc2[nH]cnc2c1 showed a half-life [2] of 1.15 h, a Ki [1] of 9.3 nM and a Cmax [3] of 480 ng/mL. It also gave an AUC ([4]; plasma) of 1010 ng·h/mL and a pKa [5] of 5.8.

Work on Cc1cnc(NCC2(c3ccccc3)CCC2)c(=O)n1CC(=O)NCc1ccc2c(N)noc2c1 yielded a half-life [2] of 1.95 h, a Ki [1] of 10.2 nM and a Cmax [3] of 620 ng/mL. The AUC ([4]; plasma) was 2150 ng·h/mL and the pKa [5] was 8.6.

COc1cccc(S(=O)(=O)Nc2cccn(CC(=O)NCc3ccc4c(N)[nH]nc4c3)c2=O)c1 showed a half-life [2] of 1.85 h, a Cmax [3] of 350 ng/mL and an AUC ([4]; plasma) of 1040 ng·h/mL. It also gave a pKa [5] of 3.8.

In the case of Cc1cnc(NCC2(c3ccccn3)CC2)c(=O)n1CC(=O)NCc1ccc2c(N)noc2c1, the half-life [2] is reported as 1.67 h, the Ki [1] is reported as 25.9 nM and the Cmax [3] is reported as 770 ng/mL. The AUC ([4]; plasma) was 2230 ng·h/mL and the pKa [5] was 8.6.

For Cc1ccc(NS(=O)(=O)Cc2ccccc2)c(=O)n1CC(=O)NCc1ccc2[nH]ncc2c1, the half-life [2] was 0.6 h, the Ki [1] was 8.7 nM and the Cmax [3] was 410 ng/mL. For the same compound, the AUC ([4]; plasma) was 515 ng·h/mL.

With Cc1cnc(NCC(c2ccccc2)c2ccccc2)c(=O)n1CC(=O)NCc1ccc2c(N)noc2c1 the half-life [2] was 4.17 h, the Ki [1] was 31 nM and the Cmax [3] was 300 ng/mL. For the same compound, the AUC ([4]; plasma) was 2200 ng·h/mL and the pKa [5] was 8.6.

Work on COc1ccc(C2(CNc3ncc(C)n(CC(=O)NCc4ccc5[nH]nc(N)c5c4)c3=O)CC2)cc1 yielded a half-life [2] of 1.48 h, a Ki [1] of 9 nM and a Cmax [3] of 1370 ng/mL. For the same compound, the AUC ([4]; plasma) was 3270 ng·h/mL and the pKa [5] was 3.6.

In the case of Cc1ccc(NS(=O)(=O)c2ccc3c(c2)CCO3)c(=O)n1CC(=O)NCc1ccc2[nH]ncc2c1, the Ki [1] is reported as 3.9 nM.

In the case of Cc1ccc(NS(=O)(=O)Cc2ccccc2)c(=O)n1CC(=O)NCc1ccc2[nH]nc(N)c2c1, the Ki [1] is reported as 72.9 nM and the pKa [5] is reported as 3.6.

Cc1cnc(NCCc2ccc3c(c2)CCO3)c(=O)n1CC(=O)NCc1ccc2[nH]ncc2c1 gave a Ki [1] of 2.9 nM.

Work on Cc1nc(N)ccc1CNC(=O)Cn1c(C)ccc(NS(=O)(=O)Cc2ccccc2)c1=O [L-374087] yielded a half-life [2] of 1.78 h, a Ki [1] of 0.7 nM and a Cmax [3] of 790 ng/mL. It also gave an AUC ([4]; in vivo) of 2670 ng·h/mL.

With Cc1cnc(NCC(F)(F)c2ccccc2)c(=O)n1CC(=O)NCc1ccc2c(N)noc2c1 the half-life [2] was 3.28 h, the Ki [1] was 2.5 nM and the Cmax [3] was 1200 ng/mL. It also gave an AUC ([4]; plasma) of 6030 ng·h/mL and a pKa [5] of 8.6.

For Cc1ccc(NS(=O)(=O)Cc2ccccc2)c(=O)n1CC(=O)NCc1ccc2c(N)noc2c1, the half-life [2] was 1.55 h, the Ki [1] was 74.3 nM and the Cmax [3] was 1600 ng/mL. It also gave an AUC ([4]; plasma) of 3680 ng·h/mL and a pKa [5] of 8.6.

With Cc1cnc(NCC2(c3ccc(F)cc3)CC2)c(=O)n1CC(=O)NCc1ccc2c(N)noc2c1 the half-life [2] was 2.17 h, the Ki [1] was 15.5 nM and the Cmax [3] was 850 ng/mL. For the same compound, the AUC ([4]; plasma) was 3150 ng·h/mL and the pKa [5] was 8.6.
